Experiment: Redox couple / cyclic voltammetry in aqueous 1 M H2SO4
Format: physicochemical
Description: More preferably, a solution of mercaptoethanesulfonate is allowed to react with a suspension of benzoquinone in water (Scheme 16). 0.655 g of sodium mercaptoethanesulfonate in 10 ml of water with 60 microliters of acetic acid was treated with 0.438 g of benzoquinone and allowed to stir at room temperature for 45 minutes. The resulting mixture was filtered and the filtrate was extracted with three 5 ml portions of ethyl acetate. The aqueous phase was then diluted with 30 ml of ethanol and heated to clarify it. On cooling, crystals formed that gave ^1H and ^13C NMR spectra in D2O in accord with tetra-thioethylsulfonato hydroquinone, 52 (FIGS. 5A and 5B).
To 3.956 g of sodium 3-mercaptopropanesulfonate dispersed in 50 mL of nitrogen-purged N-methyl pyrrolidinone were added 10.5 mL of 2 M aqueous NaOH. Once mixed, 2.766 g of 1,8-dichloroanthraquinone were added (Scheme 28). The suspension was heated under nitrogen to 90° C. for six days then allowed to cool. 50 mL of water containing 1 mL of acetic acid was added to the cooled solution, which was further diluted with 25 mL water. The solution was extracted with four 50 mL portions of methylene chloride, and the aqueous phase was evaporated. The residue was dissolved with 35 mL of water and 60 mL of methanol was added. The mixture was heated until clear, and left to slowly cool. […]

Row | Structure (SMILES) | reversible redox couple (aqueous 1 M H2SO4) [V vs. NHE] | reduction potential (cyclic voltammetry in 1 M H2SO4)
1 | O=S(=O)([O-])CCSc1c(O)c(SCCS(=O)(=O)[O-])c(SCCS(=O)(=O)[O-])c(O)c1SCCS(=O)(=O)[O-].[Na+].[Na+].[Na+].[Na+] [Compound 52, 2,3,5,6-tetrakis(ethylsulfanyl-2′-sulfonate)-1,4-hydroquinone tetrasodium salt] | 0.63 | 
2 | O=C1c2cccc(SCCCS(=O)(=O)[O-])c2C(=O)c2c(SCCCS(=O)(=O)[O-])cccc21.[Na+].[Na+] [Compound 109] |  | approximately 85 mV vs. NHE

— patent publication US11021441B2, “High solubility thioether quinones” (Wisconsin Alumni Research Foundation, priority 2017, dated 2021)
